Results reported in BindingDB's records for doi:10.1016/j.bioorg.2015.08.001 (Universiti Teknologi Mara (Uitm), 2015).

Molecular target: Carbonic anhydrase 2 (Bos taurus, UniProt P00921)
Test: Carbonic Anhydrase (CA) II Inhibition Assay
Settings: pH 7.2
Procedure: This was assay performed using buffer containing Tris and HEPES at the pH of 7.2-7.9 and a total concentration of 20 mM. 96-well plates were filled with 140 µL of Tris-HEPES solution, 20 µL of bovine erythrocyte carbonic anhydrase II solution (0.1-0.2 mg/2000 mL), and 20 µL of 0.7 mM para-nitrophenyl acetate (diluted in ethanol). Test compounds were incubated at 25-28 °C for 15 min prior to addition of para-nitrophenyl acetate, which starts the reaction. The reaction was allowed to take place for 30 min at 25-28 °C. All compounds tested in triplicate at different concentration. Amount of product that forms during the reaction monitored at 400 nm after 30 min.

Sequence of Carbonic anhydrase 2 (P00921 whole entry): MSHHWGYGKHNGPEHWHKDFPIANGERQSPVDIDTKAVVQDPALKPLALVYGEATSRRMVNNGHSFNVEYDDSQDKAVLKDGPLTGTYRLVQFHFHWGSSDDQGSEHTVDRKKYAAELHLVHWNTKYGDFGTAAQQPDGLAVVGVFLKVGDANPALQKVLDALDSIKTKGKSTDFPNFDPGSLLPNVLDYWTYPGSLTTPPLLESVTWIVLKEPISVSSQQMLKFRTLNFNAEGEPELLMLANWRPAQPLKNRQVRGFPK

Compound	IC50
S=C(Nc1ccc(C(c2c[nH]c3ccccc23)c2c[nH]c3ccccc23)cc1)Nc1cccc(Br)c1	131 µM
CCOC(=O)NC(=S)Nc1ccc(C(c2c[nH]c3ccc(Cl)cc23)c2c[nH]c3ccc(Cl)cc23)cc1 [Name not given]	137 µM
S=C(Nc1ccc(C(c2c[nH]c3ccc(Cl)cc23)c2c[nH]c3ccc(Cl)cc23)cc1)Nc1cc(Cl)ccc1Cl [Name not given]	139 µM
S=C(Nc1ccc(C(c2c[nH]c3ccc(Cl)cc23)c2c[nH]c3ccc(Cl)cc23)cc1)Nc1cccc(Cl)c1 [Name not given]	54.4 µM
S=C(Nc1ccc(C(c2c[nH]c3ccccc23)c2c[nH]c3ccccc23)cc1)Nc1cc(Cl)ccc1Cl [Name not given]	68.3 µM
S=C(Nc1ccc(C(c2c[nH]c3ccccc23)c2c[nH]c3ccccc23)cc1)Nc1cccc(Cl)c1 [Name not given]	112 µM

Continued, values first:

IC50	Compound
44.1 µM	Cc1cccc2c(C(c3ccc(NC(=S)Nc4ccc([N+](=O)[O-])cc4)cc3)c3c[nH]c4c(C)cccc34)c[nH]c12 [1-(4-(Bis(7-methyl-1H-indol-3-yl)methyl)phenyl)-3-(4-nitrophenyl)thiourea (3u)]
32.9 µM	O=[N+]([O-])c1ccc(NC(=S)Nc2cccc(C(c3c[nH]c4ccccc34)c3c[nH]c4ccccc34)c2)cc1 [1-(4-Nitrophenyl)-3-(3-(di(1H-indol-3-yl)methyl)phenyl)thiourea (4d)]
70.4 µM	CCOC(=O)NC(=S)Nc1ccc(C(c2c[nH]c3ccc(Br)cc23)c2c[nH]c3ccc(Br)cc23)cc1 [Name not given]
32.3 µM	O=[N+]([O-])c1ccc(NC(=S)Nc2ccc(C(c3c[nH]c4ccc(Br)cc34)c3c[nH]c4ccc(Br)cc34)cc2)cc1 [Name not given]
39.7 µM	O=[N+]([O-])c1ccc(NC(=S)Nc2ccc(C(c3c[nH]c4ccc(Cl)cc34)c3c[nH]c4ccc(Cl)cc34)cc2)cc1 [Name not given]
45.9 µM	O=[N+]([O-])c1ccc(NC(=S)Nc2ccc(C(c3c[nH]c4ccccc34)c3c[nH]c4ccccc34)cc2)cc1 [Name not given]
33 µM	S=C(Nc1ccc(C(c2c[nH]c3ccc(Br)cc23)c2c[nH]c3ccc(Br)cc23)cc1)Nc1cc(Cl)ccc1Cl [Name not given]
30.1 µM	S=C(Nc1ccc(C(c2c[nH]c3ccc(Br)cc23)c2c[nH]c3ccc(Br)cc23)cc1)Nc1cccc(Br)c1 [Name not given]
42.9 µM	S=C(Nc1ccc(C(c2c[nH]c3ccc(Br)cc23)c2c[nH]c3ccc(Br)cc23)cc1)Nc1cccc(Cl)c1 [Name not given]
